Data: US20260053861A1, “CELL COMPOSITIONS AND METHODS OF USING THE SAME” (THE REGENTS OF THE UNIVERSITY OF CALIFORNIA, priority 2022, published 2026)
Where a name gives a salt, the structure may show the parent alone.

The compounds below were run on hPSC-SCs. Details: not given.

Structure (SMILES)	z.score.t
C[C@]12N[C@H](Cc3ccccc31)c1ccccc12 [Dizocilpine maleate]	−0.1538
COc1c2c(nc3ccccc13)OC(C(C)(O)CO)C2 (stereo not drawn) [Dubinidine]	0.6554
CC[N+](C)(C)c1cccc(O)c1 [Edrophonium chloride]	0.7913
C[C@]12CC[C@H](O)C[C@@H]1CC[C@@H]1[C@@H]2CC[C@]2(C)C(=O)CC[C@@H]12 [Epiandrosterone]	1.457
C[C@]12C[C@H]3S[C@H]3C[C@@H]1CC[C@@H]1[C@@H]2CC[C@]2(C)[C@@H](O)CC[C@@H]12 [Epitiostanol]	0.1686
CC[C@]12CCCN3CCc4c(n(c5ccccc45)[C@](O)(C(=O)OC)C1)[C@@H]32 [Epivincamine]	−0.2486
CC(C)C[C@H]1C(=O)N2CCC[C@H]2[C@]2(O)O[C@](NC(=O)[C@@H]3C=C4c5cccc6[nH]cc(c56)C[C@H]4N(C)C3)(C(C)C)C(=O)N12 [Ergocryptine-alpha]	0.495
O=c1ccc2cc(O[C@@H]3O[C@H](CO)[C@@H](O)[C@H](O)[C@H]3O)c(O)cc2o1 [Esculin Hydrate]	1.053
CNC(=O)Oc1ccc2c(c1)[C@]1(C)CCN(C)[C@@H]1N2C.CNC(=O)Oc1ccc2c(c1)[C@]1(C)CCN(C)[C@@H]1N2C.O=S(=O)(O)O [Eserine sulfate, physostigmine sulfate]	−0.3526
C#C[C@]1(O)CC[C@H]2[C@@H]3CCC4=CC(=O)CC[C@]4(C)[C@H]3CC[C@@]21C [Ethisterone]	0.2916
CCOC(=O)c1cncn1[C@H](C)c1ccccc1 [Etomidate]	−0.1902
CC(C)c1c(CN(C)C(C)Cc2ccccc2)n(C)n(-c2ccccc2)c1=O (stereo not drawn) [Famprofazone]	−1.288
CC(Cc1ccc(O)cc1)NCC(O)c1cc(O)cc(O)c1 (stereo not drawn) [Fenoterol hydrobromide]	0.8992

Same assay, conditions: HTS viability of hPSC-SCs in the presence of 30 mM glucose; Prestwick library; Table S4

Structure (SMILES)	z.score.t
CC(C)N(CCC(C(N)=O)(c1ccccc1)c1ccccn1)C(C)C (stereo not drawn) [Disopyramide]	0.4205
CCN(CC)C(=S)SSC(=S)N(CC)CC [Disulfiram]	−1.291
CC(CCc1ccc(O)cc1)NCCc1ccc(O)c(O)c1 (stereo not drawn) [Dobutamine hydrochloride]	−0.3731
O=c1[nH]c2ccccc2n1CCCN1CCC(n2c(=O)[nH]c3cc(Cl)ccc32)CC1 [Domperidone]	0.006455
CCN[C@H]1C[C@H](C)S(=O)(=O)c2sc(S(N)(=O)=O)cc21 [Dorzolamide hydrochloride]	−0.7873
CN(C)CC/C=C1\c2ccccc2CSc2ccccc21 [Dosulepin hydrochloride]	−0.8478
COc1cc2nc(N3CCN(C(=O)C4COc5ccccc5O4)CC3)nc(N)c2cc1OC (stereo not drawn) [Doxazosin mesylate]	−0.8683
CN(C)CCC=C1c2ccccc2COc2ccccc21 [Doxepin hydrochloride]	0.1594
COc1cccc2c1C(=O)c1c(O)c3c(c(O)c1C2=O)C[C@@](O)(C(=O)CO)C[C@@H]3O[C@H]1C[C@H](N)[C@H](O)[C@H](C)O1 [Doxorubicin hydrochloride]	−1.209
CCO.C[C@H]1c2cccc(O)c2C(O)=C2C(=O)[C@]3(O)C(O)=C(C(N)=O)C(=O)[C@@H](N(C)C)[C@@H]3[C@@H](O)[C@@H]21.C[C@H]1c2cccc(O)c2C(O)=C2C(=O)[C@]3(O)C(O)=C(C(N)=O)C(=O)[C@@H](N(C)C)[C@@H]3[C@@H](O)[C@@H]21.Cl.Cl.O [Doxycycline hyclate]	1.148
CN(C)CCOC(C)(c1ccccc1)c1ccccn1 (stereo not drawn) [Doxylamine succinate]	−0.1538
CCN(CC)CCOC(=O)C(c1ccccc1)C1CCCCC1 (stereo not drawn) [Drofenine hydrochloride]	−0.1913
O=C(CCCN1CC=C(n2c(=O)[nH]c3ccccc32)CC1)c1ccc(F)cc1 [Droperidol]	1.197
CCCCOc1ccc(C(=O)CCN2CCCCC2)cc1 [Dyclonine hydrochloride]	−0.6492
CC(=O)[C@H]1CC[C@H]2[C@@H]3C=CC4=CC(=O)CC[C@@]4(C)[C@@H]3CC[C@]12C [Dydrogesterone]	0.81
O=c1c2ccccc2[se]n1-c1ccccc1 [Ebselen]	0.3459
Clc1ccc(COC(Cn2ccnc2)c2ccc(Cl)cc2Cl)cc1 (stereo not drawn) [Econazole nitrate]	−1.834
Cc1c2ccncc2c(C)c2c1[nH]c1ccccc12 [Ellipticine]	−1.949
CC[C@H]1CN2CCc3cc(OC)c(OC)cc3[C@@H]2C[C@@H]1C[C@H]1NCCc2cc(OC)c(OC)cc21 [Emetine dihydrochloride]	−1.991
CCOC(=O)[C@H](CCc1ccccc1)N[C@@H](C)C(=O)N1CCC[C@H]1C(=O)O [Enalapril maleate]	−0.8991
C=CCOC(Cn1ccnc1)c1ccc(Cl)cc1Cl (stereo not drawn) [Enilconazole]	−1.535
Oc1cc(O)c2c(c1)O[C@H](c1ccc(O)c(O)c1)[C@H](O)C2 [Epicatechin-(−)]	−0.411

Structure (SMILES)	z.score.t
COc1cc(C)nc(-n2nc(C)cc2OC)n1 [Epirizole]	1.191
C[C@]12CC[C@H]3C(=CCc4cc(O)ccc43)[C@@H]1CCC2=O [Equilin]	0.9352
CC[C@H]1OC(=O)[C@H](C)[C@@H](O[C@H]2C[C@@](C)(OC)[C@@H](O)[C@H](C)O2)[C@H](C)[C@@H](O[C@@H]2O[C@H](C)C[C@H](N(C)C)[C@H]2O)[C@](C)(O)C[C@@H](C)C(=O)[C@H](C)[C@@H](O)[C@]1(C)O [Erythromycin]	−0.09426
O=c1ccc2cc(O)c(O)cc2o1 [Esculetin]	−0.7376
C[C@]12CC[C@@H]3c4ccc(O)cc4CC[C@H]3[C@@H]1CC[C@@H]2O [Estradiol-17 beta]	−0.7953
C[C@]12CC[C@@H]3c4ccc(O)cc4CC[C@H]3[C@@H]1C[C@@H](O)[C@@H]2O [Estriol]	0.7296
C[C@]12CC[C@@H]3c4ccc(O)cc4CC[C@H]3[C@@H]1CCC2=O [Estrone]	1.784
C[C@]12CC[C@@H]3c4ccc(OS(=O)(=O)O)cc4CC[C@H]3[C@@H]1CCC2=O [Estropipate]	1.178
O=C(Cn1ccnc1[N+](=O)[O-])NCCO [Etanidazole]	0.1469
C=C(CC)C(=O)c1ccc(OCC(=O)O)c(Cl)c1Cl [Ethacrynic acid]	1.53
CC[C@@H](CO)NCCN[C@@H](CC)CO [Ethambutol dihydrochloride]	1.13
CCN(CC)C(=O)c1ccc(O)c(OC)c1 [Ethamivan]	1.211
O=S(=O)(O)c1cc(O)ccc1O [Ethamsylate]	−0.4549
CCOc1ccc(Cc2nccc3cc(OCC)c(OCC)cc23)cc1OCC [Ethaverine hydrochloride]	0.453
CCc1cc(C(N)=S)ccn1 [Ethionamide]	0.3024
CCN(CC)C(C)CN1c2ccccc2Sc2ccccc21 (stereo not drawn) [Ethopropazine hydrochloride]	0.2139
CCC1(C)CC(=O)NC1=O (stereo not drawn) [Ethosuximide]	0.4064
CCN1C(=O)NC(c2ccccc2)C1=O (stereo not drawn) [Ethotoin]	−0.6988
CCOc1ccc2c(c1)C(C)=CC(C)(C)N2 [Ethoxyquin]	−1.23
C#C[C@]1(OC(C)=O)CC[C@H]2[C@@H]3CCC4=C[C@@H](OC(C)=O)CC[C@@H]4[C@H]3CC[C@@]21C [Ethynodiol diacetate]	−0.3895
C#C[C@]1(O)CC[C@H]2[C@@H]3CCc4cc(OC)ccc4[C@H]3CC[C@@]21C [Ethynylestradiol 3-methyl ether]	0.9696
CC(O)(P(=O)(O)O)P(=O)(O)O [Etidronic acid, disodium salt]	−0.8317

Structure (SMILES)	z.score.t
CCc1cccc(CC)c1NC(=O)CN(CC(=O)O)CC(=O)O [Etifenin]	1.002
CCNCC(O)c1cccc(O)c1 (stereo not drawn) [Etilefrine hydrochloride]	−0.4549
CCc1cccc2c3c([nH]c12)C(CC)(CC(=O)O)OCC3 (stereo not drawn) [Etodolac]	−0.139
Cn1c(=O)c2c(ncn2CCO)n(C)c1=O [Etofylline]	0.9225
COc1cc([C@@H]2c3cc4c(cc3[C@@H](O[C@@H]3O[C@@H]5CO[C@@H](C)O[C@H]5[C@H](O)[C@H]3O)[C@H]3COC(=O)[C@H]23)OCO4)cc(OC)c1O [Etoposide]	−1.576
CC1CC(OC(=O)C(O)c2ccccc2)CC(C)(C)N1C (stereo not drawn) [Eucatropine hydrochloride]	0.0568
COc1c2ccoc2nc2c(OC)c(OCC(O)C(C)(C)O)ccc12 (stereo not drawn) [Evoxine]	0.0116
NC(N)=Nc1nc(CSCCC(N)=NS(N)(=O)=O)cs1 [Famotidine]	1.191
O=C(O)Cc1ccc(-c2ccccc2)cc1 [Felbinac]	−0.0788
CCOC(=O)C1=C(C)NC(C)=C(C(=O)OC)C1c1cccc(Cl)c1Cl (stereo not drawn) [Felodipine]	0.006455
COC(=O)Nc1nc2ccc(Sc3ccccc3)cc2[nH]1 [Fenbendazole]	−1.607
O=C(O)CCC(=O)c1ccc(-c2ccccc2)cc1 [Fenbufen]	1.249
CC(NCCC(c1ccccc1)c1ccccc1)c1ccccc1 (stereo not drawn) [Fendiline hydrochloride]	−1.478
CC(C)OC(=O)C(C)(C)Oc1ccc(C(=O)c2ccc(Cl)cc2)cc1 [Fenofibrate]	0.1742
CC(C(=O)O)c1cccc(Oc2ccccc2)c1 (stereo not drawn) [Fenoprofen calcium salt dihydrate]	0.1244
O=C1NCC2(CCN(CCc3ccccc3)CC2)O1 [Fenspiride hydrochloride]	−0.01953
CC(C)(C(=O)O)c1ccc(C(O)CCCN2CCC(C(O)(c3ccccc3)c3ccccc3)CC2)cc1 (stereo not drawn) [Fexofenadine HCl]	−0.5086
COc1cc(C(=O)OC2CC3CCC(C2)N3C)ccc1O (stereo not drawn) [Fillalbin]	0.5365
CC(C)(C)NC(=O)[C@H]1CC[C@H]2[C@@H]3CC[C@H]4NC(=O)C=C[C@]4(C)[C@H]3CC[C@]12C [Finasteride]	−0.9741
O=C(COc1ccc(Cl)cc1)N1CCN(Cc2ccc3c(c2)OCO3)CC1 [Fipexide hydrochloride]	0.5179
Cc1c(-c2ccccc2)oc2c(C(=O)OCCN3CCCCC3)cccc2c1=O [Flavoxate hydrochloride]	1.21
